Experiments:
[1] = Cytotoxicity in Caco-2 cells by MTT assay; type: cell-based; settings: human
Method: The viability of Caco-2 cells were measured after treated for 180 min with Hanks’ balanced salts solution (HBSS) (negative control), paclitaxel (positive control, 25, 50, 75 and 100 μM), BFL (50, 75, 100 and 125 μM) and BPDI (containing BFL 50, 75, 100 and 125 μM), respectively.
The cytotoxicities of free BFL and its formulation, BPDI against Caco-2 cells were tested using the 3-(4,5-dimethylthiazol-2-yl)-2,5-diphenyltetrazolium bromide (MTT) assay. Caco-2 cells at the logarithmic growth were seeded in 96-well plate at the concentration of […] and incubated in an atmosphere of 5% CO2 and 90% relative humidity at 37 °C for three days. After cells attachment, HBSS solution (negative control), paclitaxel (positive control, 25, 50, 75, and 100 μM), BFL (50, 75, 100, and 125 μM), and BPDI (containing BFL 50, 75, 100, and 125 μM) solutions were added into each well, respectively. After cells were treated for three hours, HBSS solution was removed, and cells were rinsed with PBS and incubated with 20 μL of MTT solution (0.5 mg/mL) for 4 h at 37°C and 5% CO2. Then the cells were shaken with 200 μL of DMSO for 10 min, and the absorbance was read on the microplate reader (SPECTROstar Omega, BMG LabTech GmbH, Ortenberg, Germany) at 570 nm. The viability rates were calculated by the equation: % = A/A0 × 100, wherein A was the average absorbance value of treatment group, and A0 was the average absorbance value of negative control group.

[2] = in vitro; settings: human
Method: (§1) Caco-2 cells (4.0 × 10^5 per mL) at the logarithmic growth were seeded into the AP (apical) side of a 24-well Transwell™ plates (Corning Inc., Cambridge, MA, USA). DMEM solution was added into the apical (AP) side (0.5 mL) and basal (BL) side (1.0 mL) of the chamber, respectively. The cell culture was maintained at 37 °C under 90% humidity and 5% CO2. The medium was refreshed every two days in the first week, and then on every day the following week. […] The cell inserts were considered as qualified for trans-membrane transport evaluation only if the resistance reached above […].
(§2) On day 21, the culture medium was removed from the AP and BL sides of the trans-well filters. The Caco-2 monolayers were rinsed twice with pre-warmed HBSS (37 °C) and incubated for 20 min. Then HBSS was removed completely. The test solution of BFL or BPDI (was added to AP (0.4 mL) or BL side (3.2 mL), and then same volume of HBSS was added to the corresponding sides (BL or AP sides). Incubation continued at 37 °C for 180 min. To evaluate the permeability of test compounds across the cell monolayer, solutions from BL (0.4 mL) or AP (3.2 mL) side were collected at different time intervals (60, 120, and 180 min), and replaced with the same volume of HBSS. The collected solutions were lyophilized and stored under −80 °C before HPLC analysis. Experiments for each time point were repeated three times and were performed on the independent chamber.
(§3) Chromatographic analysis was performed using a Alltima TM C18 column (4.6× 250 mm, 5 μm) on an Agilent 1200 liquid chromatography system, equipped with a quaternary solvent delivery system, an auto-sampler and a DAD detector. The isocratic eluting solution consists of A: 0.2% phosphoric acid and B: acetonitrile (54:46, v/v); the detection wavelength and flow rate were set at 226 nm and 1.0 mL/min, respectively. The HPLC analysis will be run for 25 min.
(§4) Apparent permeability values (Papp) for the test compound was calculated according to the equation [22] Papp = (dQ/dt)/(AC0) where Papp is the apparent permeability (cm/s), dQ/dt is the appearance rate of the test compound on the receiver side (μg/s), A represents the surface area of carbon ester membrane (cm^2), and C0 is the initial concentration of compounds on the given sides (μg/L).

[3] = system: Caco-2 cell monolayer; assay: in vitro
Method: as §1, §2, §3, §4

With C[C@]12CC[C@H](O)C[C@H]1CC[C@@H]1[C@@H]2CC[C@]2(C)[C@@H](c3ccc(=O)oc3)CC[C@]12O [BFL, Bufalin] the viability at 180 min, 50 μM ([1]; Caco-2 cells, 50 μM (BPDI: containing BFL 50 μM), MTT) was 102 ± 7.2%, the viability at 180 min, 75 μM ([1]; Caco-2 cells, 75 μM (BPDI: containing BFL 75 μM), MTT) was 100 ± 8.6% and the viability at 180 min, 100 μM ([1]; Caco-2 cells, 100 μM (BPDI: containing BFL 100 μM), MTT) was 99.1 ± 8.5%. For the same compound, the viability at 180 min, 125 μM ([1]; Caco-2 cells, 125 μM (BPDI: containing BFL 125 μM), MTT) was 98.9 ± 6.4%, the viability at 180 min ([1]; Caco-2 cells, 50, 75, 100 and 125 μM, read-out: viabilities after treatment) was greater than 95% and the Papp A→B at 120 min, 50 μM ([2]; Caco-2, Papp AP→BL, 50 μM, 120 min, concentration series (Table 2), n = 3) was 1.58 ± 0.32 ×10⁻⁶ cm/s. The Papp A→B at 60 min, 75 μM ([2]; Caco-2, Papp AP→BL, 75 μM, 60 min, time course (Table 3), n = 3) was 1.52 ± 0.22 ×10⁻⁶ cm/s, the Papp A→B at 120 min, 75 μM ([2]; Caco-2, Papp AP→BL, 75 μM, 120 min, concentration series (Table 2), n = 3) was 1.47 ± 0.08 ×10⁻⁶ cm/s and the Papp A→B at 120 min, 75 μM ([2]; Caco-2, Papp AP→BL, 75 μM, 120 min, time course (Table 3), n = 3) was 1.36 ± 0.08 ×10⁻⁶ cm/s. It also gave a Papp A→B at 180 min, 75 μM ([2]; Caco-2, Papp AP→BL, 75 μM, 180 min, time course (Table 3), n = 3) of 1.28 ± 0.02 ×10⁻⁶ cm/s, a Papp A→B at 120 min, 100 μM ([2]; Caco-2, Papp AP→BL, 100 μM, 120 min, concentration series (Table 2), n = 3) of 1.46 ± 0.02 ×10⁻⁶ cm/s and a Papp A→B at 120 min, 125 μM ([2]; Caco-2, Papp AP→BL, 125 μM, 120 min, concentration series (Table 2), n = 3) of 1.64 ± 0.12 ×10⁻⁶ cm/s. It also gave a Papp B→A at 120 min, 50 μM ([2]; Caco-2, Papp BL→AP, 50 μM, 120 min, concentration series (Table 2), n = 3) of 1.37 ± 0.18 ×10⁻⁶ cm/s, a Papp B→A at 60 min, 75 μM ([2]; Caco-2, Papp BL→AP, 75 μM, 60 min, time course (Table 3), n = 3) of 1.14 ± 0.28 ×10⁻⁶ cm/s and a Papp B→A at 120 min, 75 μM ([2]; Caco-2, Papp BL→AP, 75 μM, 120 min, concentration series (Table 2), n = 3) of 1.32 ± 0.14 ×10⁻⁶ cm/s. For the same compound, the Papp B→A at 120 min, 75 μM ([2]; Caco-2, Papp BL→AP, 75 μM, 120 min, time course (Table 3), n = 3) was 1.08 ± 0.17 ×10⁻⁶ cm/s, the Papp B→A at 180 min, 75 μM ([2]; Caco-2, Papp BL→AP, 75 μM, 180 min, time course (Table 3), n = 3) was 0.99 ± 0.12 ×10⁻⁶ cm/s and the Papp B→A at 120 min, 100 μM ([2]; Caco-2, Papp BL→AP, 100 μM, 120 min, concentration series (Table 2), n = 3) was 1.29 ± 0.1 ×10⁻⁶ cm/s. The Papp B→A at 120 min, 125 μM ([2]; Caco-2, Papp BL→AP, 125 μM, 120 min, concentration series (Table 2), n = 3) was 1.35 ± 0.45 ×10⁻⁶ cm/s, the Papp ([2]; Caco-2, Papp value (range over concentrations/times, text), summary of Table 2 and Table 3) was 1.46 to 1.62 ×10⁻⁶ cm/s and the Papp ([2]; Caco-2, apparent permeability coefficient (Papp) values (abstract), BFL in free or BPDI form) was greater than 1 ×10⁻⁶ cm/s. For the same compound, the main transport mechanism ([3]; Caco-2 monolayer) was “passive diffusion” and the transport classification ([3]; due to a Papp value of 1–10 × 10^−6 cm/s) was “moderate transport”.

CC(=O)O[C@H]1C(=O)[C@@]2(C)[C@H]([C@H](OC(=O)c3ccccc3)[C@]3(O)C[C@H](OC(=O)[C@H](O)[C@@H](NC(=O)c4ccccc4)c4ccccc4)C(C)=C1C3(C)C)[C@]1(OC(C)=O)CO[C@@H]1C[C@@H]2O [Paclitaxel, paclitaxel] showed a viability at 25 µM ([1]; Caco-2 cells, 25 μM, 180 min, MTT) of 65.3 ± 7.2%, a viability ([1]; Caco-2 cells, 50 μM (BPDI: containing BFL 50 μM), 180 min, MTT) of 43.5 ± 5.4% and a viability ([1]; Caco-2 cells, 75 μM (BPDI: containing BFL 75 μM), 180 min, MTT) of 34.8 ± 3.2%. It also gave a viability ([1]; Caco-2 cells, 100 μM (BPDI: containing BFL 100 μM), 180 min, MTT) of 30.5 ± 2.6%.

From article PMC6149814, “Enhanced Intestinal Permeability of Bufalin by a Novel Bufalin-Peptide-Dendrimer Inclusion through Caco-2 Cell Monolayer” (Molecules : A Journal of Synthetic Chemistry and Natural …, 2017)
